Source: article PMC10924921, “Mi-2β promotes immune evasion in melanoma by activating EZH2 methylation” (Nature Communications, 2024)

How the values were obtained:
Test in all cases: biochemical
Parameters in all cases: KINOMEscan active-site competition binding panel (468 kinase assays), per cent of control at 1000 nM
Conditions in all cases: KINOMEscan per cent of control (binding competition); read-out: Percent Control
ACVR1B = ACVR1B (Homo sapiens, UniProt P36896)
Text: (§1) Figure S7 / Percent Control

BTK = BTK (Homo sapiens, UniProt Q06187)
Text: as §1

CAMK1G = CAMK1G (Homo sapiens, UniProt Q96NX5)
Text: as §1

CSNK1A1L = CSNK1A1L (Homo sapiens, UniProt Q8N752)
Text: as §1

DRAK1 = target: T1, DRAK1 (Homo sapiens, UniProt Q9UEE5)
T1 construct: gene STK17A
Text: as §1

EGFR(T790M) = EGFR(T790M) (Homo sapiens, UniProt P00533, T790M)
Text: as §1

EPHA5 = EPHA5 (Homo sapiens, UniProt P54756)
Text: as §1

ERBB3 = ERBB3 (Homo sapiens, UniProt P21860)
Text: as §1

ICK = target: T2, ICK (Homo sapiens, UniProt Q9UPZ9)
T2 construct: gene CILK1
Text: as §1

LATS1 = LATS1 (Homo sapiens, UniProt O95835)
Text: as §1

LTK = LTK (Homo sapiens, UniProt P29376)
Text: as §1

MEK1 = target: T3, MEK1 (Homo sapiens, UniProt Q02750)
T3 construct: gene MAP2K1
Text: as §1

NEK1 = NEK1 (Homo sapiens, UniProt Q96PY6)
Text: as §1

NEK2 = NEK2 (Homo sapiens, UniProt P51955)
Text: as §1

PAK3 = PAK3 (Homo sapiens, UniProt O75914)
Text: as §1

PCTK1 = target: T4, PCTK1 (Homo sapiens, UniProt Q00536)
T4 construct: gene CDK16
Text: as §1

PCTK2 = target: T5, PCTK2 (Homo sapiens, UniProt Q00537)
T5 construct: gene CDK17
Text: as §1

PIK3CB = PIK3CB (Homo sapiens, UniProt P42338)
Text: as §1

PIK4CB = target: T6, PIK4CB (Homo sapiens, UniProt Q9UBF8)
T6 construct: gene PI4KB
Text: as §1

PIP5K2C = target: T7, PIP5K2C (Homo sapiens, UniProt Q8TBX8)
T7 construct: gene PIP4K2C
Text: as §1

[1] = target: T8, RSK4(Kin.Dom.1-N-terminal) (Homo sapiens, UniProt Q9UK32)
T8 construct: gene RPS6KA6; Kin.Dom.1-N-terminal
Text: as §1

STK35 = STK35 (Homo sapiens, UniProt Q8TDR2)
Text: as §1

TBK1 = TBK1 (Homo sapiens, UniProt Q9UHD2)
Text: as §1

TNIK = TNIK (Homo sapiens, UniProt Q9UKE5)
Text: as §1

TTK = TTK (Homo sapiens, UniProt P33981)
Text: as §1

Sequence of TNIK (Q9UKE5 whole entry): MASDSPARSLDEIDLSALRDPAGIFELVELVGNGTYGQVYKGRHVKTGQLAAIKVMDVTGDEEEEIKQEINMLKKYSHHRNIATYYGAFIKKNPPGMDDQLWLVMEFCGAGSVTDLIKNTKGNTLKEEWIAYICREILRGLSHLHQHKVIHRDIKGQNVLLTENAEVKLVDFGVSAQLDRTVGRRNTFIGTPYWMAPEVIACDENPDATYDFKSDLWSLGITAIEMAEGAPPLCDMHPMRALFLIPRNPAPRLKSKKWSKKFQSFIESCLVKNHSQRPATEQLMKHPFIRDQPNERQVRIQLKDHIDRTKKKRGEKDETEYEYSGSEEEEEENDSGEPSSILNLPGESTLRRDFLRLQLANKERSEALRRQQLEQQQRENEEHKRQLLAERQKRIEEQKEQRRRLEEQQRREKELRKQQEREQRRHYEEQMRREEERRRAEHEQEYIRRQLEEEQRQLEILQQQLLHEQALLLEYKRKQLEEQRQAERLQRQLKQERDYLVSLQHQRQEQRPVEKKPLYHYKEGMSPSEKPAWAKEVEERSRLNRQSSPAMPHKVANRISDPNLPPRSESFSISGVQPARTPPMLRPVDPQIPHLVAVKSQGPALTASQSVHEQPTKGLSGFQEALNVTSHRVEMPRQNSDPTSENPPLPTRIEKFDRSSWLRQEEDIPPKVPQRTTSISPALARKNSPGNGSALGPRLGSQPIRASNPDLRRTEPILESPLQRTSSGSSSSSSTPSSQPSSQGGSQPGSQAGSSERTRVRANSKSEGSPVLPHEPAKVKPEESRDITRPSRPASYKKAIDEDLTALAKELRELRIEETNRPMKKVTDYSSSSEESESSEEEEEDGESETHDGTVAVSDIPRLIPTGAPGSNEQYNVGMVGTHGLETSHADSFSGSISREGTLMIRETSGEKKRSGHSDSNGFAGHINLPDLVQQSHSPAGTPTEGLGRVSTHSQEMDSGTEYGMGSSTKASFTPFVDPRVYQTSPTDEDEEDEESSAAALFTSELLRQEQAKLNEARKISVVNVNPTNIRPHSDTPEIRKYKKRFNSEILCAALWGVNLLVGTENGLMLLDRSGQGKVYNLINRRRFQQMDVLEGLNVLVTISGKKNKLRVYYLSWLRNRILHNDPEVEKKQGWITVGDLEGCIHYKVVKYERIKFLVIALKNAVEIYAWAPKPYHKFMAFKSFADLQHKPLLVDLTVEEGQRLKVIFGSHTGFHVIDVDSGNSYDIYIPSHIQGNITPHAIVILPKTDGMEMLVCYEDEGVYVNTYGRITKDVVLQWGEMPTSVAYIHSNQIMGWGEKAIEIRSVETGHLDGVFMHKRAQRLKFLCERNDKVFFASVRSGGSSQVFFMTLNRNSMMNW
T1 sequence (Q9UEE5 whole entry): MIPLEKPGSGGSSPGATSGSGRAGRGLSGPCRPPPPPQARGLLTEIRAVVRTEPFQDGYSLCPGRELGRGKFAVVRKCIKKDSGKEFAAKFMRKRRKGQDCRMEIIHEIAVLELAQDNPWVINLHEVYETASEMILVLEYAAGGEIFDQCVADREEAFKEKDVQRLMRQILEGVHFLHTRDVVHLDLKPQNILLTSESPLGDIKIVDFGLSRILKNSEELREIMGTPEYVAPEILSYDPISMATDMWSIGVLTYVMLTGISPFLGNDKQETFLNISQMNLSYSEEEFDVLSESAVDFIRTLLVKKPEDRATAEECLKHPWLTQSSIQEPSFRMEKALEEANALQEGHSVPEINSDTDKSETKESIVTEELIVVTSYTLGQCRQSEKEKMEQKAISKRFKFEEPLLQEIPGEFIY
Sequence of NEK1 (Q96PY6 whole entry): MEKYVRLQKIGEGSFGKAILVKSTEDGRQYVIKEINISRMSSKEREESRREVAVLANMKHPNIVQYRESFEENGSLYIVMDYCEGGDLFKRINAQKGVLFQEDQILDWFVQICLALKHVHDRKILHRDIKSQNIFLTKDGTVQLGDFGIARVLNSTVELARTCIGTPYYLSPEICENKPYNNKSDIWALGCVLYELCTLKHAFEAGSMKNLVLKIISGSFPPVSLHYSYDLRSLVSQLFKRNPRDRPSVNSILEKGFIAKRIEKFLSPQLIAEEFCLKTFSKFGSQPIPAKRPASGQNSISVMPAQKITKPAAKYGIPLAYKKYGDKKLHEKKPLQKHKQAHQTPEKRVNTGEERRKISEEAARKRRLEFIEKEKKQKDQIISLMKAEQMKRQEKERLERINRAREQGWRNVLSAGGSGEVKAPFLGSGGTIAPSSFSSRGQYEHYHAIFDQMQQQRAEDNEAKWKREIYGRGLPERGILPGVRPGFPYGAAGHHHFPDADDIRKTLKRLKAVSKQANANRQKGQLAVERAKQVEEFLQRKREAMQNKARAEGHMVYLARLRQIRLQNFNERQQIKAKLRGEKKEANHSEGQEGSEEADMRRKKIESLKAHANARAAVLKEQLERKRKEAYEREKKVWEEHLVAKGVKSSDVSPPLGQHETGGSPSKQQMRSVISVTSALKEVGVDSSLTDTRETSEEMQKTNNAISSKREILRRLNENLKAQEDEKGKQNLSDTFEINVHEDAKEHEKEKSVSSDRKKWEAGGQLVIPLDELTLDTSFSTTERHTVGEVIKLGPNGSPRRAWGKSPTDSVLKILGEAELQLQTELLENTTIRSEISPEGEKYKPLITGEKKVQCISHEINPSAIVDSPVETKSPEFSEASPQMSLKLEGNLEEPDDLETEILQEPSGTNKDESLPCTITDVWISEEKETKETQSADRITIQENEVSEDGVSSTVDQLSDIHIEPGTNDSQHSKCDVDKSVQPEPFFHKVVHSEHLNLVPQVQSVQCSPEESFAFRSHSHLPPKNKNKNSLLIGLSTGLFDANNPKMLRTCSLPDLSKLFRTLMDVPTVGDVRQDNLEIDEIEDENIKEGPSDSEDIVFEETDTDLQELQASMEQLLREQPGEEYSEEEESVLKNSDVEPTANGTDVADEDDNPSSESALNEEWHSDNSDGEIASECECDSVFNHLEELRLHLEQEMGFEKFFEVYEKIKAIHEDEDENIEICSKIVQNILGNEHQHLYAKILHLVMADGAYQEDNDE
Sequence of LATS1 (O95835 whole entry): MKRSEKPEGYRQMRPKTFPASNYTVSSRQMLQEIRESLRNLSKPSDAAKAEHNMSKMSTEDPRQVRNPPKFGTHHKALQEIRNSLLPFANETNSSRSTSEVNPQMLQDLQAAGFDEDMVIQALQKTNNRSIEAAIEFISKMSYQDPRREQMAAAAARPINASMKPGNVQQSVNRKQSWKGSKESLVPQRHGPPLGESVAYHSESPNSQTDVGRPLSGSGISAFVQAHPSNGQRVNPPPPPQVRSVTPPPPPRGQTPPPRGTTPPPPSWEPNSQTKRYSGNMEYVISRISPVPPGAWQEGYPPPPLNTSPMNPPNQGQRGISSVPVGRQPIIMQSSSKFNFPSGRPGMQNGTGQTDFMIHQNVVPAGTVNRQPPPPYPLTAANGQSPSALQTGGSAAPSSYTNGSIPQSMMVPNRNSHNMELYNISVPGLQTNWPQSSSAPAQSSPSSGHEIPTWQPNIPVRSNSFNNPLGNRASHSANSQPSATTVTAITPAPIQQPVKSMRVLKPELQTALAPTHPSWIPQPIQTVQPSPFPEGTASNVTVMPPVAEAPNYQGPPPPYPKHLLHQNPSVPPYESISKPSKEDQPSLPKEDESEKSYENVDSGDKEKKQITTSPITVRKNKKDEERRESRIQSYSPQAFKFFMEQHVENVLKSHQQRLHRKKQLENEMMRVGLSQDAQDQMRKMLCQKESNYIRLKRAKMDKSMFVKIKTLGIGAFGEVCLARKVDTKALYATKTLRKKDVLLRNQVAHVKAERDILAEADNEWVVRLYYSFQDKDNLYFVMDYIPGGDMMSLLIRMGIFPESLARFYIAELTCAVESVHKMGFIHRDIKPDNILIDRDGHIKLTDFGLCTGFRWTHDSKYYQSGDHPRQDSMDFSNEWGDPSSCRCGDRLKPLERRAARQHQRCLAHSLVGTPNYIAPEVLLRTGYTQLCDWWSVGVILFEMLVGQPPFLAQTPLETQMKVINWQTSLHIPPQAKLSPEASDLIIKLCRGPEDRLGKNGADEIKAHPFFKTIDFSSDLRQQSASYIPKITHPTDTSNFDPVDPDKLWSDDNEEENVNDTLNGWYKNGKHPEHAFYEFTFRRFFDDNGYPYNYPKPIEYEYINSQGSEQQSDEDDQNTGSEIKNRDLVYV
T7 sequence (Q8TBX8 whole entry): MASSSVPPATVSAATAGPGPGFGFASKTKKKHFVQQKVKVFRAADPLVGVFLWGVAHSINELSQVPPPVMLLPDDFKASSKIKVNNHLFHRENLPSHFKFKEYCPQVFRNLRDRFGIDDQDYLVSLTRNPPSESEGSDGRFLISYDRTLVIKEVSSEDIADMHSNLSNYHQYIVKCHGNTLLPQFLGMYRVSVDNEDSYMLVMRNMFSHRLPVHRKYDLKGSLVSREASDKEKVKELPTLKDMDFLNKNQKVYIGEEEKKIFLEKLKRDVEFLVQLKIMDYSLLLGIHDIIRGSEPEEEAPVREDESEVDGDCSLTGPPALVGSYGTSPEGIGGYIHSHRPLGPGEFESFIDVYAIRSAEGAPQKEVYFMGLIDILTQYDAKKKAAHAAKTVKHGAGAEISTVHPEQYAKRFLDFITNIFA
Sequence of CSNK1A1L (Q8N752 whole entry): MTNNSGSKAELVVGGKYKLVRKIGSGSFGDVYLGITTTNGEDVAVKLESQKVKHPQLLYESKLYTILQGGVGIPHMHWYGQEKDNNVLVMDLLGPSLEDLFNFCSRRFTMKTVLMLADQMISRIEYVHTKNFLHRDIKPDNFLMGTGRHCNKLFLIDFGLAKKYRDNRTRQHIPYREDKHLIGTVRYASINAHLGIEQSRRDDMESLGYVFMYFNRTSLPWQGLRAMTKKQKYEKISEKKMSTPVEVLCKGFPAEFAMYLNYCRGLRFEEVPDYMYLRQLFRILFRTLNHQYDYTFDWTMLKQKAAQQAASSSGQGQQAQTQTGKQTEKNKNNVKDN

`Cn1c(=O)[nH]c2ccc(-c3cccc(C(=O)NC4CCn5ccnc5C4)c3)cc21` (stereo not shown) [Z36-MP5] was tested, and the remaining binding at 1 µM (ACVR1B) was 94%, the remaining binding at 1 µM (BTK) was 89% and the remaining binding at 1 µM (CAMK1G) was 99%. It also gave a remaining binding at 1 µM (CSNK1A1L) of 99%, a remaining binding at 1 µM (DRAK1) of 96% and a remaining binding at 1 µM (EGFR(T790M)) of 44%. It also gave a remaining binding at 1 µM (EPHA5) of 86%, a remaining binding at 1 µM (ERBB3) of 100% and a remaining binding at 1 µM (ICK) of 100%. For the same compound, the remaining binding at 1 µM (LATS1) was 100%, the remaining binding at 1 µM (LTK) was 82% and the remaining binding at 1 µM (MEK1) was 63%. It also gave a remaining binding at 1 µM (NEK1) of 81%, a remaining binding at 1 µM (NEK2) of 100% and a remaining binding at 1 µM (PAK3) of 71%. The remaining binding at 1 µM (PCTK1) was 82%, the remaining binding at 1 µM (PCTK2) was 94% and the remaining binding at 1 µM (PIK3CB) was 71%. It also gave a remaining binding at 1 µM (PIK4CB) of 100%, a remaining binding at 1 µM (PIP5K2C) of 80% and a remaining binding at 1 µM [1] of 36%. The remaining binding at 1 µM (STK35) was 81%, the remaining binding at 1 µM (TBK1) was 98% and the remaining binding at 1 µM (TNIK) was 98%. It also gave a remaining binding at 1 µM (TTK) of 91%.
